Results as given in patent US20040248864A1, “Use of anthroquinones in the treatment of kidney disease” (priority 2001, published 2004).
Like-named read-outs stand apart in the source and are kept apart here.

Experiments:
[1] = PK profile: plasma concentration of rhein after oral dosing with diacerein; format: in vivo; conditions: rat
Method: FIG. 1 is a PK profile, i.e. a graph of plasma concentration of rhein (mg/ml) against time (min) post-dosing with 100, 200 and 300 mg/kg diacerein.
Consequently, the dosing for the nephrotoxic nephritis experiment was based around this dose range (see below).

nephrotoxic nephritis = assay: rat model of nephritis (nephrotoxic nephritis): proteinuria and renal histology (crescents); format: in vivo; conditions: for proteinuria compared to the control: diacerein 50, 100 and oral once a day, prednisolone 2 mg/kg
Method: Experiments were conducted, using a rat model of nephritis (nephrotoxic nephritis) (Karkar et al, Kidney International, 1997). This is an aggressive immune driven model which parallels clinical conditions such as lupus nephritis, glomerulonephritis, IgA nephropathy and other immune-mediated nephritic diseases.
[…] Development of nephrotoxic nephritis was measured by the degree of proteinuria (in the control group) at days 6 and 10, post-disease initiation and by renal histology at day 10, quantified by the number of damaged nephrons (crescents) per histology section. These end-points were used to determine the success of the diacerein treatment. Alongside diacerein treatment, a negative control (drug vehicle only) and positive control (2 mg/kg prednisolone) were tested.

[2] = humans; cited from earlier work
IL-1 = conditions: Yaron et al 1999; Moldovan 2000; cited from earlier work
[3] = system: inducible nitric oxide synthase; conditions: osteochondrocytes, IL-1b stimulated; Pelletier 1998; cited from earlier work
[4] = system: MMPs 1, 3, 9 & 13 and pro-MMPs; conditions: Tamura et al 2001; cited from earlier work
TIMP-1 = conditions: Tamura et al 2001; cited from earlier work
[5] = day 6 post-disease initiation, significant at highest dose (p<0.01)
[6] = day 10 post-disease initiation, significant at top dose (p<0.01)

oral dose required to obtain therapeutic plasma concentrations of drug [1] [mg/kg]	SMILES	proteinuria compared to the control (nephrotoxic nephritis; [5])	nephron damage (crescents per histology section) (nephrotoxic nephritis; day 10 histology, 50 mg/kg diacerein)	nephron damage (crescents per histology section) (nephrotoxic nephritis; day 10 histology, 100 mg/kg diacerein, significant (p<0.05))	nephron damage (crescents per histology section) (nephrotoxic nephritis; day 10 histology, 200 mg/kg diacerein)	proteinuria compared to the control (nephrotoxic nephritis; [6])	effect on both proteinuria and renal damage associated with nephrotoxic nephritis (nephrotoxic nephritis; overall summary of the study)	oral dose required to obtain therapeutic plasma concentrations of drug [2] [mg/kg]	production of the pro-inflammatory cytokine IL-1 (IL-1)	production of inducible nitric oxide synthase and production of nitric oxide [3]	effect on renal damage (histology) (nephrotoxic nephritis; day 10 histology, 2 mg/kg prednisolone)	production of key matrix metalloproteinases MMPs 1, 3, 9 & 13 and pro-MMPs [4]	production of tissue inhibitor of matrix MMP-1, TIMP-1 (TIMP-1)
100 to 200	CC(=O)Oc1cccc2c1C(=O)c1c(OC(C)=O)cc(C(=O)O)cc1C2=O [diacerein]	decreased compared to the control	decrease in nephron damage	decrease in nephron damage	slight increase again	dose-dependant decrease in proteinuria	significant effect	0.8	reduce the production	reduce the production			
	C[C@]12C=CC(=O)C=C1CC[C@@H]1[C@@H]2[C@@H](O)C[C@@]2(C)[C@H]1CC[C@]2(O)C(=O)CO [prednisolone]	markedly reduced proteinuria				unexpected rebound above the control proteinuria levels					negligible		
	O=C(O)c1cc(O)c2c(c1)C(=O)c1cccc(O)c1C2=O [rhein]								reduce the production	reduce the production		down-regulates the production	increases the production
